Measurements as given in EPA's aquatic toxicity sets.

Key:
[1] = test system: Pimephales promelas; test: 96 h LC50 (-log10 mol/L); higher = more toxic
[2] = test system: Tetrahymena pyriformis; test: 48 h IGC50 (-log10 mol/L); higher = more toxic

Compound	96 h LC50 (-log10 mol/L) [1]	48 h IGC50 (-log10 mol/L) [2]
CCCCCCC1CCC(=O)O1 (stereo not given)	3.98	3.49
COc1ccc(C(C)=O)c(O)c1	3.38	3.55
CN(C)c1ccc(/C=C/C=O)cc1	4.47	3.52
C=CCCl	3.55	2.06
CCCCCCCCCCCC(C)=O	5.74	5.12
CCCCC(CC)CO (stereo not given)	3.66	3.17
O=Cc1cc(O)ccc1[N+](=O)[O-]	3.6	3.33
CCCCCCCC(C)=O	3.97	3.66
CCCCCc1ccccc1	4.94	4.79
Oc1cccc(O)c1	3.3	2.35
CC(=O)CC(C)C	2.27	1.79
CCCCCCCCCCCO	5.22	4.96
CN1CCNCC1	1.64	2.04
Nc1cccc(OCc2ccccc2)c1	4.34	3.88
OCC(Br)CBr (stereo not given)	3.49	2.51
COC(=O)c1ccc(Cl)cc1[N+](=O)[O-]	3.9	3.82
C#CC(C)O (stereo not given)	3.78	2.6
O/N=C/c1ccccc1O	4.63	3.25
CCCCCCCCC#N	4.3	3.62
CCOc1cc(C=O)ccc1O	3.28	3.02

Compound	96 h LC50 (-log10 mol/L) [1]	48 h IGC50 (-log10 mol/L) [2]
C#CCO	4.56	1.93
O=C(c1ccccc1)c1ccncc1	3.25	2.91
C=Cn1c2ccccc2c2ccccc21	7.81	5.24
CCCCCCBr	4.68	3.94
N#CCCCCCCC#N	2.41	2.23
CCCCCC(=O)O	2.84	2.79
Nc1ccc(F)cc1C(F)(F)F	3.78	2.98
CCCCCCCCC(C)=O	4.51	3.58
N#Cc1cc(Cl)ccc1N	3.73	3.44
CC(=O)C(C)(C)C	3.06	1.56
O=c1cc(-c2ccccc2)oc2ccccc12	4.8	4.41
O=Cc1c(F)c(F)c(F)c(F)c1F	5.25	3.82
CCCCOC(=O)CCC	4.09	3.52
C#CC(C)(C)O	1.41	1.69
Cc1ccncc1	2.36	2.12
CC(=O)CCC=C(C)C	3.17	2.55
O=Cc1cc(Br)ccc1O	5.19	4.11
Oc1ccc(Cl)cc1Cc1cc(Cl)ccc1O	5.94	6.09
Oc1cccnc1Br	2.57	3.15
CCOC(=O)C(Cc1ccccc1)C(=O)OCC	4.66	3.71
